From US4742062A, “Benzylpiperazine compound and pharmaceutical composition as hypolipidemic agent” (Kanebo, Ltd., priority 1985, dated 1988)
Entries after “also recorded” stand apart in the source; their conditions may differ.

How the values were obtained:
[1] = system: hypercholesterolemic mice (plasma cholesterol); experiment: Blood cholesterol lowering activity in hypercholesterolemic mice (Experiment 3); assay type: in vivo, ddY male mice; settings: for Plasma cholesterol level, mean ± S.E. / Percentage change of plasma cholesterol: orally, three times; for Percentage change of plasma cholesterol: vs untreated group
Source text: (2) Test method: It was done by a method similar to that described in H. Ozawa, Screening of Pharmaceutical Activities for Development of New Drugs - Recent Movement and Practice, Vol. 1, 84-86, 1984 issued by […] Shoin (Tokyo). ddY male mice (weighing 10 - 12 g, one group: 10 mice) were fed with hypercholesterol feed [prepared by mixing CE-2 Feed (manufactured by CLEA JAPAN INC.) with cholesterol 1 w/w %, cholic acid 0.5 w/w % and sucrose 10 w/w %]. After 7 days from the starting of feeding with the hypercholesterol feed, and thereafter 6 hours and further 24 hours (totally three times), a suspension of the test compound in 3 w/v % aqueous gum arabic solution was orally administered. 3 hours after the final administration of the test compound, blood was collected from orbital vessel with hematocrit capillary (manufactured by TERUMO Corporation, treated with heparin). The blood was centrifuged at 10,000 r.p.m. for 2 minutes to collect blood plasma. The plasma cholesterol was measured in the same manner as described in Experiment 1. From the data thus obtained, a mean value (X) of the plasma cholesterol level in the no test compound-administering group and a mean value (Y) of the plasma cholesterol level in the test compound-administering group were calculated, and the significant difference between them was tested (t-test). From the resulting data, the percentage change of plasma cholesterol in the test compound-administering group was calculated by the following equation. [formula]

[2] = system: mice fed with normal feed (serum cholesterol); experiment: Blood cholesterol lowering activity in mice fed with normal feed (Experiment 2); assay type: in vivo, ddY male mice; settings: for Serum cholesterol level, mean ± S.E. / Percentage change of serum cholesterol: 7 days; for Percentage change of serum cholesterol: vs untreated group
Source text: (2) Test method: It was done by a method similar to that of H. B. Right et al. (cf. H. B. Right et al., J. Med. Chem., Vol. 7, 113-115, 1964). ddY male mice (weighing 21-23 g, one group: 10 mice) were fed with a mixture of the test compound with powdery feed CE-2 (manufactured by CLEA JAPAN INC.) for 7 days. When the mice fed with the feed mixed with the test compound (test compound-administering group) and the mice fed with the feed mixed with no test compound (no test compound-administering group) were compared as to the feed uptake amount and body weight, there was observed no difference between two groups. After feeding for 7 days, under light anesthesia with ether, the femoral artery and vein were cut and blood was collected therefrom. The blood was centrifuged at 3,000 r.p.m. for 10 minutes to collect serum. The serum cholesterol was measured in the same manner as described in Experiment 1. From the data thus obtained, a mean value (X) of the serum cholesterol level in the no test compound-administering group and a mean value (Y) of the serum cholesterol level in the test compound-administering group were calculated, and the significant difference between them was tested (t-test). From the resulting data, the percentage change of serum cholesterol in the test compound-administering group was calculated by the following equation. [formula]

[3] = Test of acute toxicity (LD50) in mice (Experiment 6); assay type: in vivo; settings: mouse, in vivo, po, orally, 7 days observation, Weil method
Source text: (§1) ddY male mice (weighing 20-25 g, one group: 5 mice) were orally administered with a suspension of the test compound in 3 w/v % aqueous gum arabic solution.

mice = experiment: as above; assay type: in vivo; settings: orally, result in words
Source text: as §1

rats (liver) = experiment: Test of hepatic toxicity in rats, weight of liver (Experiment 4); assay type: in vivo, Wistar male rats; settings: for Weight of liver, mean ± S.E. / Percentage change of weight of liver: orally, once a day for 7 days; for Percentage change of weight of liver: vs untreated group
Description: Wistar male rats (weighing 100-130 g, one group: […]) were orally administered with a suspension of the test compound in 3 w/v % aqueous gum arabic solution once a day for 7 days. 24 hours after the final administration of the test compound, under light anesthesia with ether, the liver was taken out and the weight thereof was measured.
(§2) From the data thus obtained, a mean value (X) of the weight of liver in the no test compound-administering group and a mean value (Y) of the weight of liver in the test compound-administering group were calculated, and the significant difference between them was tested (t-test). From the resulting data, the percentage change of weight of liver in the test compound-administering group was calculated by the following equation. [formula]

mice (liver) = experiment: Test of hepatic toxicity in mice, weight of liver (Experiment 5); assay type: in vivo, ddY male mice; settings: for Weight of liver, mean ± S.E. / Percentage change of weight of liver: 7 days; for Percentage change of weight of liver: vs untreated group
Source text: ddY male mice (weighing 21-23 g, one group: 10 mice) were fed with a mixture of the test compound with powdery feed CE-2 (manufactured by CLEA JAPAN INC.) for 7 days. When the mice fed with the feed mixed with the test compound (test compound-administering group) and the mice fed with the feed mixed with no test compound (no test compound-administering group) were compared as to the feed uptake amount and body weight, there was observed no difference between two groups. After feeding for 7 days, under light anesthesia with ether, the liver was taken out, and the weight thereof was measured.
as §2

[4] = system: rats fed with normal feed (serum cholesterol); experiment: Blood cholesterol lowering activity in rats fed with normal feed (Experiment 1); assay type: in vivo, Wistar male rats; settings: for Serum cholesterol level, mean ± S.E. / Percentage change of serum cholesterol: once a day for 7 days; for Percentage change of serum cholesterol: vs untreated group
Description: It was done by a method similar to that of A. V. Ginocchio et al. (cf. A. V. Ginocchio et al., Arzneim.Forsch./Drug Res., Vol. 30, 2032-2034, 1980).
Wistar male rats (weighing 100-130 g, one group: 6 rats) were administered with a suspension of the test compound in 3 w/v % aqueous gum arabic solution once a day for 7 days. 24 hours after the final administration of the test compound, under light anesthesia with ether, the femoral artery and vein were cut and blood was collected therefrom. The blood was centrifuged at 3,000 r.p.m. for 10 minutes to collect serum. The serum cholesterol was measured by an enzymatic method using an agent for measuring total cholesterol (Determiner® TC "5", manufactured by Kyowa Medex Co., Ltd.) (cf. Charles C. Allain et al., Clin. Chem., Vol. 20, 470-475, 1974).
From the data thus obtained, a mean value (X) of the serum cholesterol level in the group to which no test compound was administered and a mean value (Y) of the serum cholesterol level in the group to which the test compound was administered were calculated, and the significant difference between them was tested (t-test). From the resulting data, the percentage change of serum cholesterol in the test compound-administering group was calculated by the following equation. [formula]

cholesterol = settings: clinical use; J. K. Reddy et al., Nature, Vol. 283, 397-398, 1980; cited from earlier work
[5] = dose per once 50 mg/kg, ** p < 0.01
[6] = dose per once 100 mg/kg, *** p < 0.001 (compound of this invention)
[7] = result in words, dihydrochloride
[8] = conc. of test compd. in feeds 0.0125%
[9] = conc. of test compd. in feeds 0.025%, *** p < 0.001
[10] = conc. of test compd. in feeds 0.025%
[11] = conc. of test compd. in feeds 0.05%, *** p < 0.001
[12] = conc. of test compd. in feeds 0.05%
[13] = conc. of test compd. in feeds 0.1%, *** p < 0.001
[14] = conc. of test compd. in feeds 0.1%
[15] = normal feed, result in words, dihydrochloride
[16] = conc. of test compd. in feeds 0.05%, ** p < 0.01 (reference compound)
[17] = conc. of test compd. in feeds 0.1%, * p < 0.05 (reference compound)

Cl.Cl.Clc1ccc(CN2CCN(CC=Cc3ccc(Cl)cc3Cl)CC2)cc1 [Compound of this invention, 1-(4-Chlorobenzyl)-4-(2,4-dichlorocinnamyl)-piperazine dihydrochloride]
Plasma cholesterol level, mean ± S.E. ([1]; dose per once 25 mg/kg, ** p < 0.01): 313.1 ± 26.0 mg/dL | Percentage change of plasma cholesterol ([1]; dose per once 25 mg/kg): -29.8% | Plasma cholesterol level, mean ± S.E. [1, 5]: 314.5 ± 16.3 mg/dL | Percentage change of plasma cholesterol ([1]; dose per once 50 mg/kg): -29.5% | Plasma cholesterol level, mean ± S.E. [1, 6]: 256.0 ± 19.4 mg/dL | Percentage change of plasma cholesterol ([1]; dose per once 100 mg/kg): -42.6% | plasma cholesterol lowering activity in comparison with probucol [1, 7]: more potent plasma cholesterol lowering activity in comparison with the known probucol; also recorded: higher activities than those of probucol in all experiments | Serum cholesterol level, mean ± S.E. ([2]; conc. of test compd. in feeds 0.0125%, * p < 0.05): 130.7 ± 6.5 mg/dL | Percentage change of serum cholesterol [2, 8]: -13.0% | Serum cholesterol level, mean ± S.E. [2, 9]: 121.0 ± 3.7 mg/dL | Percentage change of serum cholesterol [2, 10]: -19.4% | Serum cholesterol level, mean ± S.E. [2, 11]: 62.9 ± 6.4 mg/dL | Percentage change of serum cholesterol [2, 12]: -58.1% | Serum cholesterol level, mean ± S.E. [2, 13]: 31.7 ± 3.7 mg/dL | Percentage change of serum cholesterol [2, 14]: -78.9% | serum cholesterol lowering activity in comparison with probucol [2, 15]: more potent serum cholesterol lowering activity in comparison with the known probucol; also recorded: higher activities than those of probucol in all experiments | LD50 at 168 h [3]: 996 mg/kg | acute toxicity (mice): low acute toxicity | Weight of liver, mean ± S.E. (rats (liver); dose per once 12.5 mg/kg): 4.77 ± 0.07 g/100 g of body weight | Percentage change of weight of liver (rats (liver); dose per once 12.5 mg/kg): -2.9% | Weight of liver, mean ± S.E. (rats (liver); dose per once 25 mg/kg): 4.93 ± 0.10 g/100 g of body weight | Percentage change of weight of liver (rats (liver); dose per once 25 mg/kg): +0.4% | Weight of liver, mean ± S.E. (rats (liver); dose per once 50 mg/kg): 5.05 ± 0.08 g/100 g of body weight | Percentage change of weight of liver (rats (liver); dose per once 50 mg/kg): +2.9% | Weight of liver, mean ± S.E. (rats (liver); dose per once 100 mg/kg): 5.17 ± 0.07 g/100 g of body weight | Percentage change of weight of liver (rats (liver); dose per once 100 mg/kg): +5.3% | change in the weight of liver (hepatic toxicity) (rats (liver); [7]): did not give any significant change in the weight of liver; also recorded: did not give any effect on the weight of liver | Weight of liver, mean ± S.E. (mice (liver); [8]): 6.80 ± 0.22 g/100 g of body weight | Percentage change of weight of liver (mice (liver); [8]): +7.1% | Weight of liver, mean ± S.E. (mice (liver); [10]): 6.63 ± 0.22 g/100 g of body weight | Percentage change of weight of liver (mice (liver); [10]): +4.4% | Weight of liver, mean ± S.E. (mice (liver); [16]): 6.86 ± 0.30 g/100 g of body weight | Percentage change of weight of liver (mice (liver); [12]): +8.0% | Weight of liver, mean ± S.E. (mice (liver); [17]): 6.43 ± 0.42 g/100 g of body weight | Percentage change of weight of liver (mice (liver); [14]): +1.3% | change in the weight of liver (hepatic toxicity) (mice (liver); [7]): did not give any significant change in the weight of liver; also recorded: did not give any effect on the weight of liver | Serum cholesterol level, mean ± S.E. ([4]; dose per once 12.5 mg/kg): 67.1 ± 2.1 mg/dL | Percentage change of serum cholesterol ([4]; dose per once 12.5 mg/kg): -5.4% | Serum cholesterol level, mean ± S.E. ([4]; dose per once 25 mg/kg, *** p < 0.001): 62.8 ± 0.8 mg/dL | Percentage change of serum cholesterol ([4]; dose per once 25 mg/kg): -11.4% | Serum cholesterol level, mean ± S.E. [4, 5]: 64.4 ± 1.6 mg/dL | Percentage change of serum cholesterol ([4]; dose per once 50 mg/kg): -9.2% | Serum cholesterol level, mean ± S.E. [4, 6]: 44.6 ± 2.1 mg/dL | Percentage change of serum cholesterol ([4]; dose per once 100 mg/kg): -37.1% | serum cholesterol lowering activity in comparison with probucol [4, 15]: higher activities than those of probucol in all experiments; also recorded: more potent serum cholesterol lowering activity in comparison with the known probucol

CC(C)(Sc1cc(C(C)(C)C)c(O)c(C(C)(C)C)c1)Sc1cc(C(C)(C)C)c(O)c(C(C)(C)C)c1 [Reference compound, reference compound]
Plasma cholesterol level, mean ± S.E. [1, 6]: 386.2 ± 10.5 mg/dL | Percentage change of plasma cholesterol ([1]; dose per once 100 mg/kg): -13.4% | Serum cholesterol level, mean ± S.E. [2, 9]: 121.7 ± 3.1 mg/dL | Percentage change of serum cholesterol [2, 10]: -19.0% | Serum cholesterol level, mean ± S.E. [2, 11]: 104.8 ± 4.4 mg/dL | Percentage change of serum cholesterol [2, 12]: -30.2% | Serum cholesterol level, mean ± S.E. [2, 13]: 84.4 ± 5.4 mg/dL | Percentage change of serum cholesterol [2, 14]: -43.8% | LD50 at 168 h [3]: > 5000 mg/kg | Weight of liver, mean ± S.E. (rats (liver); dose per once 100 mg/kg): 4.68 ± 0.09 g/100 g of body weight | Percentage change of weight of liver (rats (liver); dose per once 100 mg/kg): -4.7% | Weight of liver, mean ± S.E. (mice (liver); [10]): 6.66 ± 0.22 g/100 g of body weight | Percentage change of weight of liver (mice (liver); [10]): +4.9% | Weight of liver, mean ± S.E. (mice (liver); [16]): 7.11 ± 0.13 g/100 g of body weight | Percentage change of weight of liver (mice (liver); [12]): +12.0% | Weight of liver, mean ± S.E. (mice (liver); [17]): 7.03 ± 0.09 g/100 g of body weight | Percentage change of weight of liver (mice (liver); [14]): +10.7% | Serum cholesterol level, mean ± S.E. [4, 6]: 70.8 ± 2.0 mg/dL | Percentage change of serum cholesterol ([4]; dose per once 100 mg/kg): -0.1%

CCOC(=O)C(C)(C)Oc1ccc(Cl)cc1 [clofibrate, ethyl p-chlorophenoxyisobutyrate]
side effect (cholesterol): hepatic toxicity
